Values after ≈ are worked out from the molar mass of the structure shown. Read-outs that look alike come from different tables or passages of the source.
Columns and labels:
[1] = 8 mg dose, acidic conditions such as found in the stomach
[2] = 0.1 N HCl at room temperature (Bertelsen et al U.S. Pat. No. 6,713,089); cited from earlier work
[3] = cited from earlier work
[4] = cited from earlier work; remark: listed apart in the source
[5] = cited from earlier work; remark: listed apart in the source

| volume of acid required for complete dissolution [1] | solubility (physchem; pH 1.2, simulated gastric fluid) | solubility (physchem; water) | Compound | solubility [2] | pKa ([3]; basic pyrimido group) | pKa [3] | pKa ([3]; enolic group) | apparent partition coefficient ([3]; n-octanol/buffer pH 7.4) | synovial fluid: plasma AUC ratios ([4]; after administration of 4 mg twice daily) | Tmax, range ([4]; fasted subjects) | time to reach peak plasma concentrations (Tmax) ([4]; fasted subjects) | half-life ([4]; in vivo) | median Tmax ([4]; new formulations containing 40% bicarbonate, co-processed intimately (US 20070218128, Bertelsen)) | median Tmax ([4]; standard tablets (US 20070218128, Bertelsen)) | mean Tmax ([5]; 25 mg film-coated tablets with bicarbonate) | mean Tmax ([5]; 50 mg film-coated tablets with bicarbonate) | mean Tmax ([5]; standard immediate release tablets) |
| --- | --- | --- | --- | --- | --- | --- | --- | --- | --- | --- | --- | --- | --- | --- | --- | --- | --- |
| more than 1400 ml | 5.6 µg/mL (≈ 15.1 µM) | 10.4 µg/mL (≈ 28 µM) | CN1C(=C(O)Nc2ccccn2)C(=O)c2sc(Cl)cc2S1(=O)=O (stereo in doubt) [lornoxicam, (3E)-6-chloro-3-[hydroxy(pyridin-2-ylamino)methylene]-2-methyl-2,3-dihydro-4H-thieno[2,3-e][1,2]thiazin-4-one 1,1-dioxide] | less than 1 mg/100 ml | 5.5 | 4.7 | 1-2 | 1.8 | ~0.5 | 84 to 360 min | around 2.5 hours | approximately 4 hours | 30 min | 150 min |  |  |  |
|  |  |  | O=C(O)Cc1ccccc1Nc1c(Cl)cccc1Cl [diclofenac] |  |  |  |  |  |  |  |  |  |  |  | 21.2 min | 29.8 min | 50.8 min |

— US20130171254A1, “FAST DISSOLVING PHARMACEUTICAL COMPOSITION COMPRISING LORNOXICAM” (ABBOTT HEALTHCARE PRIVATE LIMITED, priority 2009, published 2013)
